Counter-ions that a name gives are not always drawn.
System: warfarin-resistant Norway rats from Chicago, Illinois
Assay: Example II: feeding test of 50 ppm warfarin bait with or without antibiotic
Format: in vivo
Details: conclusion in words from the Example II mortality figures

CN(C)[C@@H]1C(O)=C(C(N)=O)C(=O)[C@@]2(O)C(O)=C3C(=O)c4c(O)cccc4[C@@](C)(O)[C@H]3C[C@@H]12 [tetracycline hydrochloride]
Effect of the antibiotic on the toxicity of warfarin: appears to enhance the toxicity of warfarin

Reference: patent US20010041737A1, “Enhancing the toxicity of warfarin in rodents” (priority 1998, published 2001)
